Source: patent US20250084095A1, “Aminopyrimidine Derivatives as Cyclin-Dependent Kinase Inhibitors” (Accutar Biotechnology Inc., priority 2023, published 2025)

Assays:
[1] = tested on: Phospho-Rb (Ser807/811) in MCF7 cells; test: Phospho-Rb expression inhibition in MCF7 cells quantified by in cell Western; assay type: cell-based, human; conditions: Homo sapiens, MCF7, 24 h, 24 hours, in cell Western, read-out: MCF7 pRb IC50
Summary of the method: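 MCF7 cells were seeded at 20,000/well, grown overnight, then treated 24 h at 37 °C with compound dilutions (0.1% DMSO from 1000× stocks). Fixed cells were co-stained for phospho-Rb Ser807/811 and total Rb. Near-infrared dual-channel in-cell Western imaging was the read-out.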

22RV1 cells = test: Cell growth inhibition of 22RV1 cells (CellTiter-Glo); assay type: cell-based; conditions: Homo sapiens, 22Rv1, 120 h, 5 days, CellTiter-Glo, read-out: 22RV1 Cell Growh GI50
Summary of the method: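 22RV1 cells were plated in RPMI1640 with FBS (20% in one version, 10% in the other) and dosed next day at various concentrations from DMSO stocks. After 5 days at 37 °C, viability was measured by CellTiter-Glo luminescence.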

Compound	IC50 [1] [nM]	GI50 (22RV1 cells) [nM]
CC(C)n1c(CN2CC[C@@H](F)C2)c(F)c(=O)c2ccc(-c3nc(N[C@@H]4C[C@H]5CO[C@H](O5)[C@H]4O)ncc3F)cc21 [Compound 202, 3-fluoro-7-(5-fluoro-2-(((1S,3R,4S,5R)-4-hydroxy-6,8-dioxabicyclo[3.2.1]octan-3-yl)amino)pyrimidin-4-yl)-2-(((R)-3-fluoropyrrolidin-1-yl)methyl)-1-isopropylquinolin-4(1H)-one]	150 to 1000	450 to 3000
CC(C)n1c(CN2[C@@H](C)COC[C@@H]2C)c(C(F)F)c(=O)c2ccc(-c3nc(N[C@@H]4C[C@H]5CO[C@H](O5)[C@H]4O)ncc3Cl)cc21 [Compound 204, 7-(5-chloro-2-(((1S,3R,4S,5R)-4-hydroxy-6,8-dioxabicyclo[3.2.1]octan-3-yl)amino)pyrimidin-4-yl)-3-(difluoromethyl)-2-(((3S,5S)-3,5-dimethylmorpholino)methyl)-1-isopropylquinolin-4(1H)-one]	40 to 150	120 to 450
CC(C)n1c(CN2[C@@H](C)COC[C@@H]2C)cc(=O)c2ccc(-c3nc(N[C@@H]4C[C@H]5CO[C@H](O5)[C@H]4O)ncc3Cl)cc21 [Compound 205, 7-(5-chloro-2-(((1S,3R,4S,5R)-4-hydroxy-6,8-dioxabicyclo[3.2.1]octan-3-yl)amino)pyrimidin-4-yl)-2-(((3S,5S)-3,5-dimethylmorpholino)methyl)-1-isopropylquinolin-4(1H)-one]	40 to 150	120 to 450
Cc1c(CN2[C@@H](C)COC[C@@H]2C)n(C(C)C)c2cc(-c3nc(N[C@@H]4C[C@H]5CO[C@H](O5)[C@H]4O)ncc3Cl)ccc2c1=O [Compound 206, 7-(5-chloro-2-(((1S,3R,4S,5R)-4-hydroxy-6,8-dioxabicyclo[3.2.1]octan-3-yl)amino)pyrimidin-4-yl)-2-(((3S,5S)-3,5-dimethylmorpholino)methyl)-1-isopropyl-3-methylquinolin-4(1H)-one]	≤ 40	≤ 120
CC(C)n1c([C@@H]2CC2(F)F)nc2c(F)cc(-c3nc(N[C@@H]4C[C@H]5CO[C@H](O5)[C@H]4O)ncc3Cl)cc21 [Compound 216, (1S,3R,4S,5R)-3-((5-chloro-4-(2-((S)-2,2-difluorocyclopropyl)-4-fluoro-1-isopropyl-1H-benzo[d]imidazol-6-yl)pyrimidin-2-yl)amino)-6,8-dioxabicyclo[3.2.1]octan-4-ol]	≤ 40	≤ 120
Cc1c(-c2nc(N[C@@H]3C[C@H]4CO[C@H](O4)[C@H]3O)ncc2Cl)sc2c(C(C)C)cn(C)c(=O)c12 [Compound 223, 2-(5-chloro-2-(((1S,3R,4S,5R)-4-hydroxy-6,8-dioxabicyclo[3.2.1]octan-3-yl)amino)pyrimidin-4-yl)-7-isopropyl-3,5-dimethylthieno[3,2-c]pyridin-4(5H)-one]	≤ 40	≤ 120
Cc1c(-c2nc(N[C@@H]3C[C@H]4CO[C@H](O4)[C@H]3O)ncc2C(F)F)sc2c(C(C)C)cn(C)c(=O)c12 [Compound 227, 2-(5-(difluoromethyl)-2-(((1S,3R,4S,5R)-4-hydroxy-6,8-dioxabicyclo[3.2.1]octan-3-yl)amino)pyrimidin-4-yl)-7-isopropyl-3,5-dimethylthieno[3,2-c]pyridin-4(5H)-one]	≤ 40	≤ 120
CCn1cc(C(C)C)c2sc(-c3nc(N[C@@H]4C[C@H]5CO[C@H](O5)[C@H]4O)ncc3Cl)c(C)c2c1=O [Compound 230, 5-ethyl-2-(5-chloro-2-(((1S,3R,4S,5R)-4-hydroxy-6,8-dioxabicyclo[3.2.1]octan-3-yl)amino)pyrimidin-4-yl)-7-isopropyl-3-methylthieno[3,2-c]pyridin-4(5H)-one]	≤ 40	120 to 450
CC(C)(O)c1cnc2c(F)cc(-c3nc(N[C@@H]4C[C@H]5CO[C@H](O5)[C@H]4O)ncc3Cl)cc2c1Cl [Compound 252, (1S,3R,4S,5R)-3-((5-chloro-4-(4-chloro-8-fluoro-3-(2-hydroxypropan-2-yl)quinolin-6-yl)pyrimidin-2-yl)amino)-6,8-dioxabicyclo[3.2.1]octan-4-ol]	≤ 40	≤ 120
